Assay results as given in patent US8748462B2, “Spirocyclic GPR40 modulators” (Amgen Inc., priority 2008, dated 2014).

Tests used:
[1] = target: T1, human GPR40 (Homo sapiens, UniProt O14842); assay: Inositol phosphate accumulation assay; format: cell-based; details: A9 cell line stably transfected with GPR40; 1 hour at 37° C.; read-out: IP3 EC50
T1 construct: expressed in transfected cells; host or cells: CHO cells stably transfected with GPR40 and Aequorin
Experimental: An A9 cell line stably transfected with GPR40 (A9_GPR40) was used in IP accumulation assays. A9_GPR40 cells were plated in 96-well plates containing 20,000 cells/well in DMEM containing 10% FBS. After the cells attached to the well surface, the media was replaced with inositol free DMEM containing 10% dialyzed FBS and 1 μCi, mL ^3H-inositol and incubated for 16 hours. Compounds were diluted in HBSS/10 mM LiCl containing a desired amount of HSA and added directly to cells. Following 1 hour incubation at 37° C., the media was replaced with 100 μL of 20 mM formic acid to quench the reaction. 50 μL of the extract was then added to 100 μL of SPA beads, incubated overnight, and measured on a TopCount the following day.

[2] = target: T1, human GPR40; assay: Cell-based aequorin assay; details: CHO cells stably transfected with GPR40 and aequorin; 0.01% HSA
Experimental: Cell-based aequorin assays were employed to characterize the modulatory activity of compounds on the GPR40 signaling pathway. In an exemplary assay, CHO cells were stably transfected with both GPR40 and Aequorin (Euroscreen). Cells were detached from the tissue culture dish with 2 mL of trypsin (0.25% (w/v)). Trypsinization was halted with 28 mL of Hanks Buffered Salt Solution containing 20 mM Hepes (H/HBSS) and 0.01% fatty acid-free human serum albumin (HSA). Coelantrazine is added to 1 ug/mL, and the cells were incubated for 2 hours at room temperature. Compounds were dissolved in DMSO for preparation of 10 mM stock solutions. Compounds were diluted in H/HBSS containing 0.01% HSA. Serial dilutions of the test compounds were prepared to determine dose response.
Aequorin luminescence measurements were made using an EG&G Berthold 96-well luminometer, and the response was measured over a 20 second interval after cells and compounds were mixed. The maximum relative light units was plotted to determine dose response. The EC50 (effective concentration to reach 50% maximal response) was determined from the dose response plot.

T1 sequence (O14842 whole entry): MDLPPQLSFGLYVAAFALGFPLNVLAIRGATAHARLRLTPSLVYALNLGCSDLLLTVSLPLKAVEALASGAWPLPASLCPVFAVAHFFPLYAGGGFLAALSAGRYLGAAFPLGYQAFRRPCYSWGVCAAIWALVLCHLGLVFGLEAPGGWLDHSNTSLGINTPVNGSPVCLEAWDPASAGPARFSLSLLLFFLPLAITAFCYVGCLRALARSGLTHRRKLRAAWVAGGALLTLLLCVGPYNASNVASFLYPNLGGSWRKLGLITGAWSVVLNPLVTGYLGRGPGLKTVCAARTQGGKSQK

SMILES	EC50 [1] [nM]	EC50 [2] [nM]
COc1ccc(F)c(-c2ccc(COc3ccc4c(c3)[C@]3(CCC4)C[C@H]3C(=O)O)cc2[C@@H](OC)C(C)(C)C)c1 (single isomer, unassigned) [Example 46]	< 10	10 to 100
COc1ccc(F)c(-c2ccc(COc3ccc4c(c3F)[C@]3(CCC4)C[C@H]3C(=O)O)cc2[C@H]2CCCC2(C)C)c1 (single isomer, unassigned) [Example 51]	< 10	10 to 100
COc1ccc(F)c(-c2ccc(COc3ccc4c(c3F)[C@@]3(CCC4)C[C@@H]3C(=O)O)cc2[C@H]2CCCC2(C)C)c1 (single isomer, unassigned) [Example 52]	1000 to 10000	> 10000
COc1cc(-c2cc(F)c(COc3ccc4c(c3F)[C@]3(CCC4)C[C@H]3C(=O)O)cc2[C@H]2CCCC2(C)C)c(F)cn1 (single isomer, unassigned) [Example 57]	< 10	100 to 1000
COc1cc(-c2ccc(COc3cc4c(cn3)CC[C@]43C[C@H]3C(=O)O)cc2[C@@H](OC)C(C)(C)C)c(F)cn1 (single isomer, unassigned) [Example 58, (2′R,5R)-3-({4-(5-Fluoro-2-methoxypyridin-4-yl)-3-1[(1S)-1-methoxy-2,2-dimethylpropyl]phenyl}methoxy)-6,7-dihydrospiro[cyclopenta[c]pyridine-5,1′-cyclopropane]-2′-carboxylic acid or (2′R,5R)-3-({4-(5-fluoro-2-methoxypyridin-4-yl)-3-[(1R)-1-methoxy-2,2-dimethylpropyl]phenyl}methoxy)-6,7-dihydrospiro[cyclopenta[c]pyridine-5,1′-cyclopropane]-2′-carboxylic acid]	< 10	100 to 1000
CCCOc1ccc(COc2ccc3c(c2)[C@]2(CCC3)C[C@H]2C(=O)O)cc1[C@@H]1CCCC1(C)C (single isomer, unassigned) [Example 129]	100 to 1000	1000 to 10000
CC(C)COc1ccc(COc2ccc3c(c2)[C@]2(CCC3)C[C@H]2C(=O)O)cc1[C@@H]1CCCC1(C)C (single isomer, unassigned) [Example 130]	100 to 1000	1000 to 10000
COCCOc1ccc(COc2ccc3c(c2)[C@]2(CCC3)C[C@H]2C(=O)O)cc1[C@@H]1CCCC1(C)C (single isomer, unassigned) [Example 131]	100 to 1000	1000 to 10000
COc1ccc(F)c(-c2ccc(COc3ccc4c(c3)C3(CC4)CCC3C(=O)O)cc2[C@@H]2CCCC2(C)C)c1 (single isomer, unassigned) [Example 148]	10 to 100	100 to 1000
COc1ccc(F)c(-c2ccc(COc3ccc4c(c3)C3(CCC4)CCC3C(=O)O)cc2C(OC)C(C)(C)C)c1 (single isomer, unassigned) [Example 155]	< 10	100 to 1000
COc1cc(-c2ccc(COc3ccc4c(c3)C3(CCC4)CCC3C(=O)O)cc2[C@@H]2CCCC2(C)C)c(F)cn1 (single isomer, unassigned) [Example 156]	10 to 100	100 to 1000
COc1cc(-c2ccc(COc3ccc4c(c3F)[C@]3(CC4)C[C@H]3C(=O)O)cc2[C@@H]2CCCC2(C)C)c(Cl)cn1 (stereo in doubt) [Example 125]	10 to 100	100 to 1000
COc1ccc(F)c(-c2ccc(COc3ccc4c(c3)[C@]3(CC4)C[C@H]3C(=O)O)cc2CC(C)(C)C)c1 [Example 13]	< 10	10 to 100
COc1ccc(F)c(-c2ccc(COc3ccc4c(c3)[C@]3(CC4)C[C@H]3C(=O)O)cc2C2=CCCC2)c1 [Example 20]	10 to 100	100 to 1000
CCCCOc1cc(COc2ccc3c(c2)[C@]2(CC3)C[C@H]2C(=O)O)ccc1-c1cc(OC)ccc1F [Example 24]	10 to 100	100 to 1000
CCCCOc1cc(COc2ccc3c(c2)[C@]2(CC3)C[C@H]2C(=O)O)ccc1-c1cccc(OC)c1 [Example 25]	100 to 1000	100 to 1000

Now from value to molecule:

EC50 [1] [nM]	EC50 [2] [nM]	SMILES
< 10	10 to 100	COc1ccc(F)c(-c2ccc(COc3ccc4c(c3)[C@]3(CCC4)C[C@H]3C(=O)O)cc2[C@H]2CCCC2(C)C)c1 (single isomer, unassigned) [Example 47]
< 10	10 to 100	COc1cc(-c2ccc(COc3ccc4c(c3F)[C@]3(CCC4)C[C@H]3C(=O)O)cc2[C@@H](OC)C(C)(C)C)c(F)cn1 (single isomer, unassigned) [Example 53]
< 10	10 to 100	COc1ccc(F)c(-c2ccc(COc3ccc4c(c3F)[C@]3(CCC4)C[C@H]3C(=O)O)cc2[C@@H](OC)C(C)(C)C)c1 (single isomer, unassigned) [Example 54]
< 10	100 to 1000	COc1ccc(F)c(-c2cc(F)c(COc3ccc4c(c3F)[C@]3(CCC4)C[C@H]3C(=O)O)cc2[C@H]2CCCC2(C)C)c1 (single isomer, unassigned) [Example 56]
100 to 1000	100 to 1000	COc1cc(-c2ccc(COc3cc4c(cn3)CC[C@@]43C[C@@H]3C(=O)O)cc2[C@@H](OC)C(C)(C)C)c(F)cn1 (single isomer, unassigned) [Example 59, (2′S,5S)-3-({4-(5-Fluoro-2-methoxypyridin-4-yl)-3-[(1S)-1-methoxy-2,2-dimethylpropyl]phenyl}methoxy)-6,7-dihydrospiro[cyclopenta[c]pyridine-5,1′-cyclopropane]-2′-carboxylic acid or (2′S,5S)-3-({4-(5-fluoro-2-methoxypyridin-4-yl)-3-[(1R)-1-methoxy-2,2-dimethylpropyl]phenyl}methoxy)-6,7-dihydrospiro[cyclopenta[c]pyridine-5,1′-cyclopropane]-2′-carboxylic acid]
< 10	100 to 1000	COc1cc(-c2ccc(COc3cc(F)c4c(c3F)[C@]3(CC4)C[C@H]3C(=O)O)cc2[C@H](OC)C(C)(C)C)c(F)cn1 (single isomer, unassigned) [Example 127]
< 10	100 to 1000	COc1ccc(F)c(-c2ccc(COc3ccc4c(c3)C3(CC4)CCC3C(=O)O)cc2C(OC)C(C)(C)C)c1 (single isomer, unassigned) [Example 149]
< 10	100 to 1000	COc1cc(-c2ccc(COc3ccc4c(c3)[C@]3(CC4)CC[C@@H]3C(=O)O)cc2[C@@H]2CCCC2(C)C)c(F)cn1 (single isomer, unassigned) [Example 150]
10 to 100	100 to 1000	COc1ccc(F)c(-c2ccc(COc3ccc4c(c3)[C@]3(CC4)CC[C@@H]3C(=O)O)cc2C2=CCCC2(C)C)c1 (single isomer, unassigned) [Example 151]
10 to 100	100 to 1000	COc1ccc(F)c(-c2ccc(COc3ccc4c(c3)[C@]3(CCC4)CC[C@@H]3C(=O)O)cc2[C@@H]2CCCC2(C)C)c1 (single isomer, unassigned) [Example 154]
10 to 100	100 to 1000	COc1ccc(F)c(-c2ccc(COc3ccc4c(c3)[C@]3(CCC4)CC[C@@H]3C(=O)O)cc2C2=CCCC2(C)C)c1 (single isomer, unassigned) [Example 158]
< 10	100 to 1000	COc1ccc(F)c(-c2ccc(COc3ccc4c(c3)[C@]3(CC4)C[C@H]3C(=O)O)cc2C2=CCCC2(C)C)c1 [Example 1]
< 10	10 to 100	COc1cc(-c2ccc(COc3ccc4c(c3)[C@]3(CC4)C[C@H]3C(=O)O)cc2[C@@H]2CCCC2(C)C)c(F)cn1 [Example 19, (1R,2R)-6′-(3-((R)-2,2-Dimethylcyclopentyl)-4-(5-fluoro-2-methoxypyridin-4-yl)benzyloxy)-2′,3′-dihydrospiro[cyclopropane-1,1′-indene]-2-carboxylic acid]
10 to 100	100 to 1000	COc1ccc(F)c(-c2ccc(COc3ccc4c(c3)[C@]3(CC4)C[C@H]3C(=O)O)cc2C2(OC)CCCC2)c1 [Example 22]
< 10	10 to 100	COc1cc(-c2ccc(COc3ccc4c(c3)[C@]3(CCC4)C[C@H]3C(=O)O)cc2[C@@H]2CCCC2(C)C)c(F)cn1 [Example 48]
10 to 100	100 to 1000	COc1ccc(F)c(-c2ccc(COc3ccc4c(c3)[C@]3(CCC4)C[C@H]3C(=O)O)cc2C2=CCCC2(C)C)c1 [Example 49]
< 10	100 to 1000	COc1cc(-c2ccc(COc3ccc4c(c3F)[C@]3(CCC4)C[C@H]3C(=O)O)cc2[C@@H]2CCCC2(C)C)c(F)cn1 [Example 55]
